Measured values reported in publication PMC8877291, “Design and Synthesis of Arylpiperazine Serotonergic/Dopaminergic Ligands with Neuroprotective Properties” (Molecules, 2022).

Tested on: SH-SY5Y neuroblastoma cells
Experiment: Cytotoxicity in SH-SY5Y cells (MTT assay)
Assay type: cell-based, human
Details: 48 h, dose range 0.1 to 100 μM
Experimental: Initially, the cytotoxicity of the target compounds was assessed by treating SH-SY5Y cells for 48 h with various concentrations of compounds (0.1 to 100 μM).
SH-SY5Y neuroblastoma cells (cat. CRL-2266, ATCC) were cultured in a 1:1 mixture of Eagle’s Minimum Essential Medium (cat. 15-010-CVR, Corning) and Ham’s F12 medium (cat. 10-080-CVR, Corning). This medium was supplemented with 10% (v/v) Fetal Bovine Serum (cat. 35-079-CV, Corning), 1% (v/v) Glutamine (cat. ECB3000D, Euro Clone) and 1% (v/v) Penicillin—Streptomycin (cat.30-002-CI, Corning). Cells were cultivated at 37 °C with 5% CO2 at saturated humidity.
Determination of cell growth was performed using the MTT assay at 48 h. On day 1, 25,000 cells/well were seeded into 96-well plates in a volume of 100 μL. On day 2, the various drug concentrations ([…]–100 μM) were added. In all the experiments, the various drug-solvents (EtOH, DMSO) were added in each control to evaluate possible solvent cytotoxicity. After the established incubation time with drugs (48 h), MTT (0.5 mg/mL) was added to each well, and after 3–4 h incubation at 37 °C, the supernatant was removed. The formazan crystals were solubilized using 100 μL of DMSO/EtOH (1:1, v/v) and the absorbance values at 570 and 630 nm were determined on the microplate reader Victor 3 (PerkinElmer Life Sciences, Waltham, MA, USA).

How did the “cytotoxicity (in words)” value turn out when `Cn1c(=O)cnn(CCCN2CCN(c3ncccc3-c3ccncc3)CC2)c1=O` [Compound 11a, 2-(3-(4-([3,4’-Bipyridin]-2-yl)piperazin-1-yl)propyl)-4-methyl-1,2,4-triazine-3,5(2H,4H)-dione] was run?
Its value is “not cytotoxic”.

Which “cytotoxicity (in words)” value does the source give for `Cn1c(=O)cnn(CCCCN2CCN(c3ncccc3-c3ccncc3)CC2)c1=O` [Compound 11b, 2-(4-(4-([3,4’-Bipyridin]-2-yl)piperazin-1-yl)butyl)-4-methyl-1,2,4-triazine-3,5(2H,4H)-dione] here?
The value was “not cytotoxic”.
